Test results as given in US9951035B2, “Selective matrix metalloproteinase inhibitors” (University of Notre Dame du Lac, priority 2014, dated 2018).
Where a name gives a salt, the structure may show the parent alone.

Experiment: Stability in buffers of the kinetic assays
Type: physicochemical
Conditions: in words
Excerpt: Human recombinant active MMP-2 and MMP-7, and the catalytic domains of MMP-3 and MMP-14/MT1-MMP were purchased from EMD Chemicals, Inc. (San Diego, Calif., USA); human recombinant catalytic domains of MMP-1, MMP-8, and MMP-9 were purchased from Enzo Life Sciences, Inc. (Farmingdale, N.Y., USA); human recombinant active ADAM9 and ADAM10 were purchased from R&D Systems (Minneapolis, Minn., USA). Fluorogenic substrates MOCAc-Pro-Leu-Gly-Leu-A2pr(Dnp)-Ala-Arg-NH2 (for MMP-2, MMP-7, MMP-9 and MMP-14) and MOCAc-Arg-Pro-Lys-Pro-Val-Glu-Nva-Trp-Arg-Lys(Dnp)-NH2 (for MMP-3) were purchased from Peptides International (Louisville, Ky., USA); Mca-KPLGL-Dpa-AR-NH2 (for MMP-1, MMP-8 and ADAM10) and Mca-PLAQAV-Dpa-RSSSR-NH2 (for ADAM9) were purchased from R&D Systems (Minneapolis, Minn., USA). […] Inhibitor stock solutions (10 mM) were prepared fresh in DMSO before enzyme inhibition assays. We followed the same methodology for enzyme inhibition studies as reported by Page-McCaw et al. (Nat. Rev. Mol. Cell Biol. 2007, 8, 221-233). Enzyme inhibition studies were carried out using a Cary Eclipse fluorescence spectrophotometer (Varian, Walnut Creek, Calif., USA). Compounds 4, 5, 6 and 7 were stable in the buffers that were used in the kinetic assays.

NCc1ccc(Oc2ccc(S(=O)(=O)CC3CS3)cc2)cc1 (stereo not shown) [Compound 5, (4-(4-((Thiiran-2-ylmethyl)sulfonyl)phenoxy)phenyl)methanamine HCl salt]
stability in the buffers used in the kinetic assays: stable
